Data reported in patent publication US20170253607A1, “LONG-ACTING HIV PROTEASE INHIBITOR” (Shionogi & Co., Ltd., priority 2014, published 2017).

Experiments:
[1] = Evaluation of total body clearance (CLtot), intravenous administration; format: in vivo, Sprague-Dawley (SD); settings: rat (SD), intravenous administration 0.5-10 mg/kg; CLtot = dose/AUC
How it was run: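 Plasma levels quantified by LC/MS/MS after intravenous tail-vein dosing (0.5-10 mg/kg, compound-dependent; n=2-3). AUC from pharmacokinetic analysis; total clearance calculated as dose/AUC.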

HIV-1 PR = HIV-1 PR (Human immunodeficiency virus type 1 group M subtype B, UniProt P04585); assay: HIV-protease inhibitory activity assay (FRET peptide substrate); format: biochemical; settings: Test Example 1
How it was run: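 HIV-1 PR (0.83 ng) preincubated with compounds 20 min at room temperature in 0.1 mol/L NaAc, 0.5 mol/L NaCl, 1 mmol/L EDTA, 1 mmol/L DTT, 0.05% Tween 20, pH 4.8. Cleavage of HiLyte Fluor 488/QXL 520 FRET peptide (2 μmol/L) read after 60 minutes at 485/535 nm; IC50 from four-parameter logistic fit.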

[2] = Protein binding test (equilibrium dialysis, unbound ratio fu in serum); format: in vitro ADME; settings: rat serum, equilibrium dialysis 24 hours, 37° C., 2 μg/mL
How it was run: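 Compound at 2 μg/mL in serum was dialysed against PBS for 24 hours at 37° C. Both sides were quantified by LC/MS/MS, and fu was taken as the PBS concentration divided by the serum concentration.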

| Compound | rat_CLt [1] [mL/min/kg] | IC50 (HIV-1 PR) [nM] | rat_fu [2] [%] |
| --- | --- | --- | --- |
| COc1ccc(S(=O)(=O)N(CC(C)C)C[C@@H](O)[C@H](Cc2ccc(OC(C)(C)C(=O)Nc3sc4c(c3C(=O)O)CC(C)(C)CC4)cc2)NC(=O)O[C@H]2CO[C@@]3(C)OCC[C@@H]23)cc1 [Compound I-7] | 0.238 | 2.31 | <0.1 |
| COc1ccc(S(=O)(=O)N(CC(C)C)CC(O)C(Cc2ccc(OCc3ncc(F)cc3-c3sc4c(c3C(=O)O)CC(C)(C)CC4)cc2)NC(=O)OC2COC3(C)OCCC23)cc1 (stereo not drawn) [Compound I-182] | 3.84 | 1.44 | <0.1 |
| COc1ccc(S(=O)(=O)N(CC(C)C)CC(O)C(Cc2ccc(OCc3ncccc3-c3sc4c(c3C(=O)O)CC(C)(C)CC4)cc2)NC(=O)OC2COC3OCCC23)cc1 (stereo not drawn) [Compound I-827] | 4.21 | 0.81 | <0.1 |
| CC(C)CN(CC(O)C(Cc1ccc(OCc2ccccc2-c2ccc3c(c2)C(=O)C(c2ccc(F)cc2)C3=O)cc1)NC(=O)OC1COC2(C)OCCC12)S(=O)(=O)c1ccc2ncsc2c1 (stereo not drawn) [Compound I-175] | 4.44 | 2 | <0.1 |
| Cc1cc(Oc2ccc(CC(NC(=O)OC3COC4(C)OCCC34)C(O)CN(CC(C)C)S(=O)(=O)c3ccc4ncsc4c3)cc2)ccc1-c1sc2c(c1C(=O)O)CC(C)(C)CC2 (stereo not drawn) [Compound I-138] | 1.6 | 2.66 | <0.1 |
| COc1ccc(S(=O)(=O)N(CC(C)C)C[C@@H](O)[C@H](Cc2ccc(OCc3ccccc3C(=O)Nc3sc4c(c3C(=O)O)CC(C)(C)CC4)cc2)NC(=O)O[C@H]2CO[C@@]3(C)OCC[C@@H]23)cc1 [Compound I-268] | 0.0553 | 4.46 | <0.1 |
| COc1ccc(S(=O)(=O)N(CC(C)C)CC(O)C(Cc2ccc(CN(C)Cc3ccc(-c4sc5c(c4C(=O)O)CC(C)(C)CC5)cc3)cc2)NC(=O)OC2COC3(C)OCCC23)cc1 (stereo not drawn) [Compound I-267] | 5.01 | 2.4 | <0.1 |
| COc1ccc(S(=O)(=O)N(CC(C)C)CC(O)C(Cc2ccc(CCc3sc4c(c3C(=O)O)CC(C)(C)CC4(C)C)cc2)NC(=O)OC2COC3(C)OCCC23)cc1 (stereo not drawn) [Compound I-105] | 2.29 | 2.42 | <0.1 |
| COc1ccc(S(=O)(=O)N(CC(C)C)CC(O)C(Cc2ccc(OC3CCC(c4ccc(C(F)(F)F)cc4-c4sc5c(c4C(=O)O)CC(C)(C)CC5)C3)cc2)NC(=O)OC2COC3(C)OCCC23)cc1 (stereo not drawn) [Compound I-343] | 3.31 | 15.9 | <0.1 |
| COc1ccc(S(=O)(=O)N(CC(C)C)CC(O)C(Cc2ccc(OCc3ncc(Cl)cc3-c3sc4c(c3C(=O)O)CC(C)(C)CC4)cc2)NC(=O)OC2COC3(C)OCCC23)cc1 (stereo not drawn) [Compound I-93] | 2.22 | 0.99 | <0.1 |
| COc1ccc(S(=O)(=O)N(CC(C)C)CC(O)C(Cc2ccc(CN3CCc4ccc(-c5sc6c(c5C(=O)O)CC(C)(C)CC6)cc4C3)cc2)NC(=O)OC2COC3(C)OCCC23)cc1 (stereo not drawn) [Compound I-389] | 14 | 1.79 | <0.1 |
| COc1ccc(S(=O)(=O)N(CC(C)C)CC(O)C(Cc2ccc(OCc3cc(C#N)ccc3-c3sc4c(c3C(=O)O)CC(C)(C)CC4)cc2)NC(=O)OC2COC3(C)OCCC23)cc1 (stereo not drawn) [Compound I-79] | 3.15 | 1.74 | <0.1 |
| COc1ccc(S(=O)(=O)N(CC(C)C)CC(O)C(Cc2ccc(N3CC(Oc4ccccc4-c4sc5c(c4C(=O)O)CC(C)(C)CC5)C3)cc2)NC(=O)OC2COC3(C)OCCC23)cc1 (stereo not drawn) [Compound I-357] | 1.55 | 4.41 | <0.1 |
| COc1ccc(S(=O)(=O)N(CC2CCCC2)CC(O)C(Cc2ccc(OCc3ccccc3-n3nc4c(c3C(=O)O)CC3(CCCC3)CC4)cc2)NC(=O)OC2COC3(C)OCCC23)cc1 (stereo not drawn) [Compound I-146] | 0.584 | 0.92 | <0.1 |
